Measured values taken from patent US11484513B2, “Salbutamol-containing ophthalmic medicament” (priority 2016, dated 2022).

How the values were obtained:
Periretinal fibrosis = assay: Clinical observation in periretinal fibrosis; conditions: human, in vivo
Excerpt: (§1) The invention will be illustrated further by the description of clinical examples, which of course are not limiting in nature. The medicament was administrated orally, topically in the form of eye drops or by intraocular injection especially intravitreal injection, unless indicated differently.
13) Periretinal fibrosis: is reduced after Salbutamol treatment.

Uveitis = assay: Clinical observation in uveitis cases (visual acuity, OCT); type: in vivo, human; conditions: 10 cases of uveitis pooled (salbutamol alone or associated)
Method: as §1
(§2) According to particular embodiments where topical administration using eye drops is carried out, the dosages, posologies, administration regimen of the administered active principles are as described in the particular embodiments disclosed in the detailed description, i.e., Salbutamol is administered topically in a concentration of 0.1% (w/v), and/or Ramiprilate is administered topically in a concentration of 2% (w/v), and/or eplerenone is administered topically in a concentration of 1% (w/v), and/or N Acetyl DL Leucine is administered topically in a concentration of 1% (w/v), the active principle(s) being administered once or twice or three times, and up to four times a day, during 1, 2 or 3 months, or more, unless specified differently.
In 10 cases of uveitis; salbutamol alone or associated with one or more of these: non-steroidal anti inflammatory drugs, angiotensin converting enzyme inhibitors, aldosterone receptors antagonist, β1 blocker, anhydrase carbonic inhibitor, magnesium, corticosteroids and serrapeptase reduced inflammatory disorders. […]

Astigmatism = assay: Clinical observation in astigmatism subjects; type: in vivo, human
Excerpt: The invention will be illustrated further by the description of clinical examples, which of course are not limiting in nature. The medicament was administrated orally, topically in the form of eye drops or by intraocular injection especially intravitreal injection, unless indicated differently. This invention relates to the manufacture of an eye protective medicament, namely Salbutamol via general route or topical route (eye drops) for improving vision. More particularly, but not exclusively, it relates to eye drops comprising Salbutamol, which are intended for improving (i.e., in the present case decreasing the effects of presbyopia, myopia, hypermetropia and astigmatism) and for stabilizing them or even reversing their evolutive course thereof. The astigmatism subjects noticed an improvement of their refraction and visual acuity.

Cataract = assay: Clinical observation in cataract; type: in vivo, human; conditions: under salbutamol
Excerpt: as §1

Stargardt's disease = assay: Clinical observation in Stargardt's disease patients; type: in vivo, human; conditions: 8 patients
Excerpt: as §1
8 patients treated with Salbutamol noticed an improvement of their visual acuity.
If we associate to Salbutamol one or more of these: N Acetyl DL Leucine, nitric monoxide donor (vitamin C, vitamin B9), Ramiprilat, and aldosterone receptor antagonist; improvement is noted.

Vitreous hemorrhage = assay: Clinical observation in vitreous hemorrhage; type: in vivo, human; conditions: many cases
Excerpt: as §1

[1] = test system: Age related macular degeneration; assay: Clinical observation in age related macular degeneration patients (visual acuity, OCT, fluoro-angiography); type: in vivo, human
Method: as §1, §2
The structural information provided by O.C.T is becoming a valuable diagnostic adjunct to fluorescein angiography. OCT is a valuable tool for probing the effect of these treatments.
15 patients were treated with salbutamol or salbutamol associated with one or more of these: aldosterone receptor antagonist, ACEI (angiotensin converting enzyme inhibitor), N Acetyl DL Leucine, magnesium and serrapeptase (Eye drops; tablets; intra ocular injection).
Patient three presented with a history of decreased vision in the right eye. […] Prior to receiving Salbutamol treatment an OCT scan was taken, which is shown in (FIG. 06).
Then we prescribe topically Salbutamol eye drops 0.1% (w/v), Ramiprilat eye drops 2% (W/v), Eplerenone eye drops 1% (w/v). N Acetyl DL Leucine eye drops 1% (w/v) association three times a day.
Patient two presented with a six months history of decreased vision in the right eye.
They were treated with Salbutamol eye drops 0.1% (w/v). Three months later visual acuity improved.

Dry eye = assay: Clinical observation in dry eye patients; type: in vivo, human; conditions: 7 patients, eye drops
Excerpt: as §1

[2] = test system: Age related physiological vision decline; assay: Clinical observation in age related physiological vision decline; type: in vivo, human; conditions: many cases, absence of any ocular pathology
Excerpt: as §1

[3] = test system: Allergic conjunctivitis and blepharitis; assay: Clinical observation in allergic conjunctivitis and blepharitis patients; type: in vivo, human; conditions: 5 patients, eye drops
Excerpt: as §1

Corneal oedema = assay: Clinical observation in corneal oedema patients; type: in vivo, human; conditions: 10 patients
Excerpt: as §1

Vitreo macular traction = assay: Clinical observation in vitreo macular traction / proliferative diabetic retinopathy (vitreolysis); type: in vivo, human
Excerpt: as §1
In many cases of proliferative diabetic retinopathy including fibrovascular proliferation, retinal detachment, vitreo macular traction, the intravitreal injection of Salbutamol led to induction of posterior vitreous detachment, easier peeling and removal of epiretinal fibrotic membrane and internal limiting membrane particularly in macular hole pathology.

Pigmentosa retinitis = assay: Clinical observation in pigmentosa retinitis patients; type: in vivo, human
Excerpt: as §1

Myopia = assay: Clinical observation in myopia patients; type: in vivo, human; conditions: 12 myopia patients, eye drops
Method: as §1, §2
This invention relates to the manufacture of an eye protective medicament, namely Salbutamol via general route or topical route (eye drops) for improving vision.
12 patients were evaluated and received salbutamol in the form of eye drops.
Results: in the addition to the improvement of their visual acuity, the refractive value was reduced. […]

Diabetic retinopathy = assay: Clinical observation in diabetic retinopathy patients (visual acuity, OCT); type: in vivo, human
Method: as §1, §2
Currently, one examination technique is very useful in evaluating diabetic; that's optical coherence tomography (O.C.T).
OCT is very sensitive in evaluating diabetic macular oedema, central macular thickness correlates with visual acuity.
The response of macular oedema to the administration of one drug such as Salbutamol or a medicament associating Salbutamol, angiotensin converting enzyme inhibitor, antagonist of aldosterone receptor and N Acetyl DL Leucine can be documented accurately by O.C.T imaging.
Diabetic patients were treated with these medicaments given topically,
The following study was undertaken on several patients having non-proliferative diabetic; retinopathy or proliferative diabetic retinopathy.
20 patients were treated with either Salbutamol or salbutamol associated with one or more of these: ACEI (angiotensin converting enzyme inhibitor), aldosterone receptor antagonist, N Acetyl DL Leucine, magnesium and serrapeptase (eye drops; tablets; intra ocular injection especially intra vitreal injection). […]

Presbyopia = assay: Clinical observation in presbyopia patients; type: in vivo, human; conditions: 08 patients, eye drops
Method: as §1, §2
08 patients received Salbutamol in the form of eye drops and experimented an improvement of their near vision and a decrease in presbyopia. […] Salbutamol has proven to be an effective treatment of presbyopia.

Keratoconus = assay: Clinical observation in keratoconus patients; type: in vivo, human; conditions: 02 keratoconus patients
Excerpt: as §1, with “differently. 02 patients received Salbutamol, they noticed an improvement of visual acuity and a reduced irregular astigmatism.” for “differently.”

Glaucoma = assay: Clinical observation in glaucoma patients; type: in vivo, human; conditions: patients with known glaucoma, pooled (Salbutamol alone or associated)
Method: as §1
Patients with known glaucoma experienced a decrease in their ocular tension, and an improvement of their visual acuity and visual field once they are treated with Salbutamol or salbutamol associated with one or more of these: N Acetyl DL Leucine, glucose, magnesium, aldosterone receptor antagonist (eplerenone), angiotensin converting enzyme inhibitor (Ramiprilat), β1 blocker and anhydrase carbonic inhibitor.

[4] = 15 patients pooled (salbutamol alone or associated), eye drops, tablets, intra ocular injection
[5] = patient two, right eye, Salbutamol eye drops 0.1% (w/v), three months later
[6] = 20 patients pooled (Salbutamol alone or associated), eye drops, tablets, intra ocular injection

With `CC(C)(C)NCC(O)c1ccc(O)c(CO)c1` (stereo not shown) [Salbutamol] the periretinal fibrosis (Periretinal fibrosis) was “reduced”, the inflammatory disorders (Uveitis) was “reduced” and the refraction (Astigmatism) was “improvement”. For the same molecule, the visual acuity (Astigmatism) was “improvement”, the improvement of cataract (Cataract) was “Some improvement” and the visual acuity (Stargardt's disease) was “improvement”. For the same molecule, the vitreous hemorrhage (Vitreous hemorrhage) was “decreased”, the O.C.T [1, 4] was “improvement” and the visual acuity [1, 4] was “improvement”. The macular thickening ([1]; eye drops given topically instead of intraocular anti VEGF injection) was “regression”, the “successive OCT controls” value ([1]; patient three, first round of treatment (Salbutamol)) was “more improvement but no complete recovery” and the macular thickening ([1]; patient three, right eye, occult CNV, three months after Salbutamol treatment) was “incomplete regression”. For the same molecule, the “macular thickening (OCT)” value [1, 5] was “incomplete regression”, the visual acuity [1, 5] was “improved” and the dry eye (Dry eye) was “improved”. The visual function [2] was “improved”, the “allergic conjunctivitis and blepharitis” value [3] was “improved” and the oedema (Corneal oedema) was “decreased”. The vision (Corneal oedema) was “improve”, the “effect on the retina” value (Vitreo macular traction; during vitreolysis) was “without adversely affecting the retina” and the proteolytic activity (Vitreo macular traction; human, in vivo) was “seems to have a proteolytic activity”. The vitreolysis (Vitreo macular traction; human, in vivo) was “promotes a vitreolysis inducing both synchesis and synerisis”, the posterior vitreous detachment (Vitreo macular traction; intravitreal injection, many cases of proliferative diabetic retinopathy incl. vitreo macular traction) was “induction” and the “peeling and removal of epiretinal fibrotic membrane and internal limiting membrane” value (Vitreo macular traction; intravitreal injection, many cases of proliferative diabetic retinopathy, particularly macular hole pathology) was “easier”. For the same molecule, the visual acuity (Pigmentosa retinitis; 9 patients, all of them) was “improvement”, the visual field (Pigmentosa retinitis; 9 patients, all of them) was “improvement” and the visual function (Pigmentosa retinitis; pigmentosa retinitis) was “improvement”. The refractive value (Myopia) was “reduced”, the visual acuity (Myopia) was “improvement” and the retinopathy (Diabetic retinopathy; [6]) was “improves”. For the same molecule, the visual acuity (Diabetic retinopathy; [6]) was “improves”, the “total macular volume (OCT)” value (Diabetic retinopathy; patient one, eye drops 0.1% (w/v), two months after treatment) was “decreased” and the near vision (Presbyopia) was “improvement”. The “need to wear a correction of the near vision” value (Presbyopia) was “Some of them did not need any longer”, the presbyopia (Presbyopia) was “decrease” and the irregular astigmatism (Keratoconus) was “reduced”. For the same molecule, the visual acuity (Keratoconus) was “improvement”, the ocular tension (Glaucoma) was “decrease” and the visual acuity (Glaucoma) was “improvement”. The visual field (Glaucoma) was “improvement”.
